Source: the supplement of paper PMC10307832

Tests used:
Assay in all cases: relative viability (nuclei count vs DMSO), 5 days (fraction); higher = more cells survive
Ispinesib + Alpelisib = compound: Cc1ccc(C(=O)N(CCCN)[C@@H](c2nc3cc(Cl)ccc3c(=O)n2Cc2ccccc2)C(C)C)cc1 [Ispinesib] + Cc1nc(NC(=O)N2CCC[C@H]2C(N)=O)sc1-c1ccnc(C(C)(C)C(F)(F)F)c1 [Alpelisib] (partner 2 µM)
How it was run: (§1)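 Lung cancer cell lines in 1536-well plates got either a single drug or a fixed anchor-drug dose together with five library-drug doses (not always all listed) in √10 steps, by pin tool, on the day after seeding. Nuclei were counted after 5 days, and relative viability is the treated-to-vehicle ratio of nuclei counts. Values are medians of duplicate plates.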

Linsitinib + OSI-027 = compound: C[C@]1(O)C[C@@H](c2nc(-c3ccc4ccc(-c5ccccc5)nc4c3)c3c(N)nccn32)C1 [Linsitinib] + COc1cccc2cc(-c3nc([C@H]4CC[C@H](C(=O)O)CC4)n4ncnc(N)c34)[nH]c12 [OSI-027] (partner 0.5 µM)
How it was run: as §1

Ispinesib + Dasatinib = compound: Cc1ccc(C(=O)N(CCCN)[C@@H](c2nc3cc(Cl)ccc3c(=O)n2Cc2ccccc2)C(C)C)cc1 [Ispinesib] + Cc1nc(Nc2ncc(C(=O)Nc3c(C)cccc3Cl)s2)cc(N2CCN(CCO)CC2)n1 [Dasatinib] (partner 0.075 µM)
How it was run: as §1

| Cell Line | relative viability (Ispinesib + Alpelisib; first compound 0.001 µM) | relative viability (Ispinesib + Alpelisib; first compound 0.003162 µM) | relative viability (Ispinesib + Alpelisib; first compound 0.01 µM) | relative viability (Ispinesib + Alpelisib; first compound 0.03162 µM) | relative viability (Ispinesib + Alpelisib; first compound 0.1 µM) | relative viability (Linsitinib + OSI-027; first compound 0.01 µM) | relative viability (Linsitinib + OSI-027; first compound 0.03162 µM) | relative viability (Linsitinib + OSI-027; first compound 0.1 µM) | relative viability (Linsitinib + OSI-027; first compound 0.3162 µM) | relative viability (Linsitinib + OSI-027; first compound 1 µM) | relative viability (Ispinesib + Dasatinib; first compound 0.001 µM) | relative viability (Ispinesib + Dasatinib; first compound 0.003162 µM) | relative viability (Ispinesib + Dasatinib; first compound 0.01 µM) | relative viability (Ispinesib + Dasatinib; first compound 0.03162 µM) | relative viability (Ispinesib + Dasatinib; first compound 0.1 µM) |
| --- | --- | --- | --- | --- | --- | --- | --- | --- | --- | --- | --- | --- | --- | --- | --- |
| ABC-1 | 1.36 | 0.881 | 1.25 | 0.343 | 0.315 | 0.502 | 0.447 | 0.504 | 0.38 | 0.217 | 0.569 | 0.803 | 0.523 | 0.294 | 0.288 |
| NCI-H460 | 0.584 | 0.45 | 0.667 | 0.0767 | 0.0288 | 0.736 | 0.646 | 0.701 | 0.507 | 0.304 | 0.557 | 0.619 | 0.573 | 0.323 | 0.0386 |
| NCI-H1395 | 1.14 | 0.945 | 0.87 | 0.398 | 0.493 | 0.571 | 0.637 | 0.612 | 0.622 | 0.545 | 0.432 | 0.419 | 0.713 | 0.354 | 0.333 |
| EBC-1 | 0.77 | 0.861 | 0.931 | 0.244 | 0.274 |  |  |  |  |  |  |  |  |  |  |
| NCI-H23 | 0.547 | 0.679 | 0.785 | 0.731 | 0.459 | 0.722 | 0.64 | 0.606 | 0.206 | 0.251 | 0.857 | 1.02 | 0.885 | 0.653 | 0.188 |
| LOU-NH91 | 0.724 | 0.705 | 0.751 | 0.607 | 0.553 | 0.714 | 0.704 | 0.7 | 0.712 | 0.527 | 0.591 | 0.608 | 0.592 | 0.519 | 0.206 |
| NCI-H2009 | 1.16 | 1.18 | 1.33 | 1.04 | 0.463 | 0.746 | 0.646 | 0.696 |  | 0.428 | 0.264 | 0.325 | 0.271 | 0.142 | 0.144 |
| NCI-H358 | 0.885 | 0.874 | 0.989 | 0.573 | 0.283 | 0.781 | 0.928 | 0.68 | 0.421 | 0.246 | 0.162 | 0.144 | 0.163 | 0.131 | 0.0677 |
| NCI-H2126 | 0.765 | 0.811 | 0.901 | 0.742 | 0.813 | 0.671 | 0.909 | 0.596 | 0.478 | 0.358 | 0.671 | 0.658 | 0.768 | 0.566 | 0.413 |
| ChaGo-K-1 |  |  |  |  |  | 0.613 | 0.627 | 0.573 | 0.319 | 0.522 | 0.584 | 0.605 | 0.643 | 0.668 | 0.226 |
| NCI-H1437 | 1.11 | 1.14 | 0.972 | 0.893 | 0.272 | 0.874 | 0.885 | 1.02 | 0.853 | 0.893 | 0.45 | 0.512 | 0.395 | 0.35 | 0.166 |
| SK-LU-1 | 1.08 | 1.01 | 1.15 | 0.773 | 0.383 | 0.338 |  | 0.295 | 0.221 | 0.197 | 0.173 | 0.173 | 0.173 | 0.144 | 0.112 |
| NCI-H838 | 1.17 | 1.06 | 1.1 | 1.04 | 0.426 | 0.323 | 0.42 | 0.312 |  | 0.189 | 0.325 | 0.335 | 0.29 | 0.242 | 0.182 |
| NCI-H1755 | 1.09 | 1.03 | 1.16 | 0.815 | 0.547 | 0.681 | 0.77 | 0.737 | 0.356 | 0.487 | 0.391 | 0.453 | 0.387 | 0.352 | 0.237 |
| NCI-H2228 | 0.632 | 0.582 | 1.14 | 0.522 | 0.325 | 0.57 | 0.604 | 0.492 | 0.335 | 0.254 | 0.557 | 0.522 | 0.665 | 0.211 | 0.2 |
| NCI-H1915 | 1.09 | 1.16 | 1.03 | 0.958 | 0.979 | 0.646 | 0.678 | 0.623 | 0.515 | 0.392 | 0.304 | 0.312 | 0.38 | 0.25 | 0.137 |
| NCI-H2347 | 1.04 | 1.13 | 1.18 | 0.94 | 0.655 | 0.36 | 0.517 | 0.261 |  | 0.356 | 0.285 | 0.209 | 0.289 | 0.284 | 0.282 |
| HARA | 0.865 | 0.806 | 0.914 | 0.674 | 0.371 | 0.505 | 0.502 | 0.637 |  | 0.232 | 0.26 | 0.258 | 0.301 | 0.293 | 0.0741 |
| NCI-H2085 | 0.997 | 1.04 | 1.04 | 1.02 | 0.688 | 0.681 | 0.657 | 0.814 | 0.712 | 0.431 | 0.228 | 0.225 | 0.242 | 0.261 | 0.206 |
| NCI-H650 | 1.11 | 1.23 | 1.29 | 1.05 | 0.353 | 0.524 | 0.527 | 0.541 | 0.256 | 0.27 | 0.491 | 0.473 | 0.448 | 0.349 | 0.172 |
| A549 | 0.655 | 0.761 | 1.08 | 0.0901 | 0.0827 |  |  |  |  |  |  |  |  |  |  |
| NCI-H1703 | 0.352 | 0.322 | 0.224 | 0.0938 | 0.135 |  |  |  |  |  |  |  |  |  |  |
| NCI-H1299 | 1.11 | 1.09 | 1.15 | 1.17 | 0.449 |  |  |  |  |  |  |  |  |  |  |
| NCI-H2342 |  |  |  |  |  | 0.521 | 0.608 | 0.608 | 0.53 | 0.551 | 0.284 | 0.305 | 0.328 | 0.284 | 0.27 |
| SW 900 |  |  |  |  |  | 0.565 | 0.593 | 0.481 | 0.397 | 0.352 | 0.561 | 0.654 | 0.782 | 0.246 | 0.196 |
| NCI-H1623 |  |  |  |  |  | 0.408 | 0.432 | 0.398 |  | 0.285 | 0.63 | 0.63 | 0.523 | 0.461 | 0.468 |
